Source: ChEMBL document CHEMBL1127246, “1,2,5,6-tetrahydropyridine oxime ethers incorporating electron withdrawing groups are potent and selective muscarinic agonists” (Bioorg Med Chem Lett, 1994)
Each block holds one molecule with its values, some of them ahead of it.

Key:
[1] = biological target: Muscarinic acetylcholine receptor; experiment: In vitro binding affinity against Muscarinic receptor in rat cerebral cortex using [3H]- quinuclidinyl benzilate (QNB)using as a radioligand; Value ranges from 15000-15000; type: tissue-based
[2] = biological target: Muscarinic acetylcholine receptor; experiment: In vitro binding affinity against Muscarinic receptor in rat cerebral cortex using [3H]- oxotremorine-M (OXO-M) using as a radioligand; Value ranges from 990-1300; type: tissue-based
[3] = biological target: Muscarinic acetylcholine receptor (Rattus norvegicus) (UniProt P08482+P08483+P08485+P08911+P10980); experiment: Selectivity is the ratio of inhibitory activities against muscarinic receptors, determined using radioligand [3H]OXO-M and 3[H}-QND; type: protein assay
[4] = Partition coefficient (logP); type: physicochemical; settings: octanol/water
[5] = pKa value was measured; type: physicochemical
[6] = biological target: Muscarinic acetylcholine receptor; experiment: In vitro binding affinity against Muscarinic receptor in rat cerebral cortex using [3H]- quinuclidinyl benzilate (QNB)using as a radioligand; Value ranges from 18000-23000; type: tissue-based
[7] = biological target: Muscarinic acetylcholine receptor; experiment: In vitro binding affinity against Muscarinic receptor in rat cerebral cortex using [3H]- oxotremorine-M (OXO-M) using as a radioligand; Value ranges from 46-110; type: tissue-based
Rattus norvegicus [8] = experiment: Effective dose causing 50% decrease in mean blood pressure upon intravenous administration in rats; type: functional
Rattus norvegicus [9] = experiment: Dose required to induce a standard increase in rhythmical slow wave activity (RSA) in rats when administered intravenously; type: functional
[10] = Ratio of compound in rat rhythmical slow wave activity assay vs efficacy causing 50% decrease in BP in rats; type: functional
[11] = biological target: Muscarinic acetylcholine receptor; experiment: In vitro binding affinity against Muscarinic receptor in rat cerebral cortex using [3H]- oxotremorine-M (OXO-M) using as a radioligand; type: tissue-based
[12] = biological target: Muscarinic acetylcholine receptor; experiment: In vitro binding affinity against Muscarinic receptor in rat cerebral cortex using [3H]- quinuclidinyl benzilate (QNB)using as a radioligand; type: tissue-based
[13] = biological target: Muscarinic acetylcholine receptor; experiment: In vitro binding affinity against Muscarinic receptor in rat cerebral cortex using [3H]- oxotremorine-M (OXO-M) using as a radioligand; Value ranges from 330-620; type: tissue-based
[14] = biological target: Muscarinic acetylcholine receptor; experiment: In vitro binding affinity against Muscarinic receptor in rat cerebral cortex using [3H]- quinuclidinyl benzilate (QNB)using as a radioligand; Value ranges from 8000-8500; type: tissue-based
[15] = biological target: Muscarinic acetylcholine receptor; experiment: In vitro binding affinity against Muscarinic receptor in rat cerebral cortex using [3H]- oxotremorine-M (OXO-M) using as a radioligand; Value ranges from 240-290; type: tissue-based
[16] = biological target: Muscarinic acetylcholine receptor; experiment: In vitro binding affinity against Muscarinic receptor in rat cerebral cortex using [3H]- oxotremorine-M (OXO-M) using as a radioligand; Value ranges from 840-1200; type: tissue-based
[17] = biological target: Muscarinic acetylcholine receptor; experiment: In vitro binding affinity against Muscarinic receptor in rat cerebral cortex using [3H]- quinuclidinyl benzilate (QNB)using as a radioligand; Value ranges from 9100-9600; type: tissue-based
[18] = biological target: Muscarinic acetylcholine receptor; experiment: In vitro binding affinity against Muscarinic receptor in rat cerebral cortex using [3H]- oxotremorine-M (OXO-M) using as a radioligand; Value ranges from 65-260; type: tissue-based
[19] = biological target: Muscarinic acetylcholine receptor; experiment: In vitro binding affinity against Muscarinic receptor in rat cerebral cortex using [3H]- quinuclidinyl benzilate (QNB)using as a radioligand; Value ranges from 9700-23000; type: tissue-based
[20] = biological target: Muscarinic acetylcholine receptor; experiment: In vitro binding affinity against Muscarinic receptor in rat cerebral cortex using [3H]- quinuclidinyl benzilate (QNB)using as a radioligand; Value ranges from 11000-17000; type: tissue-based
[21] = biological target: Muscarinic acetylcholine receptor; experiment: In vitro binding affinity against Muscarinic receptor in rat cerebral cortex using [3H]- oxotremorine-M (OXO-M) using as a radioligand; Value ranges from 2300-3500; type: tissue-based
[22] = biological target: Muscarinic acetylcholine receptor; experiment: In vitro binding affinity against Muscarinic receptor in rat cerebral cortex using [3H]- quinuclidinyl benzilate (QNB)using as a radioligand; Value ranges from 1500-7200; type: tissue-based
[23] = biological target: Muscarinic acetylcholine receptor; experiment: In vitro binding affinity against Muscarinic receptor in rat cerebral cortex using [3H]- oxotremorine-M (OXO-M) using as a radioligand; Value ranges from 28-58; type: tissue-based
[24] = biological target: Muscarinic acetylcholine receptor; experiment: In vitro binding affinity against Muscarinic receptor in rat cerebral cortex using [3H]- quinuclidinyl benzilate (QNB)using as a radioligand; Value ranges from 2100-2300; type: tissue-based
[25] = biological target: Muscarinic acetylcholine receptor; experiment: In vitro binding affinity against Muscarinic receptor in rat cerebral cortex using [3H]- oxotremorine-M (OXO-M) using as a radioligand; Value ranges from 120-220; type: tissue-based
[26] = biological target: Muscarinic acetylcholine receptor; experiment: In vitro binding affinity against Muscarinic receptor in rat cerebral cortex using [3H]- quinuclidinyl benzilate (QNB)using as a radioligand; Value ranges from 4300-9500; type: tissue-based
[27] = biological target: Muscarinic acetylcholine receptor; experiment: In vitro binding affinity against Muscarinic receptor in rat cerebral cortex using [3H]- quinuclidinyl benzilate (QNB)using as a radioligand; Value ranges from 1200-1800; type: tissue-based
[28] = biological target: Muscarinic acetylcholine receptor; experiment: In vitro binding affinity against Muscarinic receptor in rat cerebral cortex using [3H]- oxotremorine-M (OXO-M) using as a radioligand; Value ranges from 23-35; type: tissue-based
[29] = biological target: Muscarinic acetylcholine receptor; experiment: In vitro binding affinity against Muscarinic receptor in rat cerebral cortex using [3H]- oxotremorine-M (OXO-M) using as a radioligand; Value ranges from 120-180; type: tissue-based
[30] = biological target: Muscarinic acetylcholine receptor; experiment: In vitro binding affinity against Muscarinic receptor in rat cerebral cortex using [3H]- quinuclidinyl benzilate (QNB)using as a radioligand; Value ranges from 4700-6700; type: tissue-based

SMILES: CO/N=C/C1=CCCNC1
- logP [4]: 1.01
- pKa [5]: 9.18
- IC50 [6]: 20000 nM
- IC50 [7]: 71 nM
- ED50 (Rattus norvegicus [8]): 0.067 mg/kg
- ED Arec (Rattus norvegicus [9]): 0.019 mg/kg
- Ratio [10]: 3.5
- Ratio [3]: 280

SMILES: CO/N=C(\Cl)C1CN2CCC1CC2 (stereo not given)
- Ratio [3]: 16

SMILES: CO/N=C(\CF)C1=CCCN(C)C1
- IC50 [13]: 450 nM
- IC50 [14]: 8300 nM
- Ratio [3]: 18

SMILES: CO/N=C(\C#N)C1CN2CCC1CC2 (stereo not given)
- Ratio [10]: >10.8
- Ratio [3]: 14

SMILES: CO/N=C(\CF)C1=CCCNC1
- IC50 [11]: 420 nM
- IC50 [12]: 17000 nM
- Ratio [3]: 40

SMILES: CO/N=C(\F)C1CN2CCC1CC2 (stereo not given)
- IC50 [24]: 2200 nM
- Ratio [3]: 65

SMILES: CO/N=C(\C#N)C1=CCCNC1
- logP [4]: 1.41
- pKa [5]: 8.6
- IC50 [27]: 1500 nM
- IC50 [28]: 28 nM
- ED50 (Rattus norvegicus [8]): > 0.32 mg/kg
- ED Arec (Rattus norvegicus [9]): 0.032 mg/kg
- Ratio [10]: >10
- Ratio [3]: 54

SMILES: CO/N=C(\Cl)C1=CCCNC1
- IC50 [29]: 150 nM
- Ratio [3]: 37
- IC50 [30]: 5600 nM

Now from value to molecule, other results behind:

- IC50 [1]: 15000 nM
- IC50 [2]: 1100 nM
- Ratio [3]: 14
SMILES: CO/N=C(/C1=CCCN(C)C1)C(F)F

- IC50 [11]: 41 nM
- IC50 [12]: 2900 nM
- Ratio [3]: 70
SMILES: CO/N=C(\F)C1=CCCNC1

- IC50 [12]: 2800 nM
- IC50 [15]: 260 nM
- Ratio [3]: 11
SMILES: CO/N=C(\Cl)C1=CCCN(C)C1

- IC50 [16]: 1000 nM
- IC50 [17]: 9400 nM
- Ratio [3]: 9
SMILES: CCN1CCC=C(/C(C#N)=N/OC)C1

- IC50 [11]: 11000 nM
SMILES: CO/N=C(\C1=CCCN(C)C1)C(F)(F)F

- logP [4]: 1.45
- pKa [5]: 8.21
- IC50 [18]: 110 nM
- IC50 [19]: 14000 nM
- Ratio [3]: 130
SMILES: CO/N=C/C1=CCCN(C)C1 [MILAMELINE]
- ED50 (Rattus norvegicus [8]): 0.15 mg/kg
- ED Arec (Rattus norvegicus [9]): 0.15 mg/kg
- Ratio [10]: 1

- IC50 [20]: 13000 nM
- IC50 [21]: 2800 nM
- Ratio [3]: 5
SMILES: CON=C(C1=CCCN(C)C1)C(F)(F)F

- logP [4]: 1.48
- pKa [5]: 7.39
- IC50 [22]: 4000 nM
- IC50 [23]: 39 nM
- Ratio [3]: 100
SMILES: CO/N=C(\F)C1=CCCN(C)C1
- ED50 (Rattus norvegicus [8]): 0.04 mg/kg
- ED Arec (Rattus norvegicus [9]): 0.054 mg/kg
- Ratio [10]: 0.74

- logP [4]: 1.76
- pKa [5]: 7.65
- IC50 [25]: 150 nM
- IC50 [26]: 4500 nM
- Ratio [3]: 30
SMILES: CO/N=C(\C#N)C1=CCCN(C)C1
- ED50 (Rattus norvegicus [8]): > 1 mg/kg
- ED Arec (Rattus norvegicus [9]): 0.16 mg/kg
- Ratio [10]: >6.3
